DC50 and EC50 data for 18 compounds are collected here from patent US20250320206A1, “STAT6 DEGRADERS” (Gilead Sciences, Inc., priority 2024, published 2025).

In one test the target is T1, STAT6 (Homo sapiens, UniProt P42226).
T1 construct: These cells express endogenous STAT6; host or cells: HeLa LgBiT clone 4.14
T1 sequence (P42226 1-847): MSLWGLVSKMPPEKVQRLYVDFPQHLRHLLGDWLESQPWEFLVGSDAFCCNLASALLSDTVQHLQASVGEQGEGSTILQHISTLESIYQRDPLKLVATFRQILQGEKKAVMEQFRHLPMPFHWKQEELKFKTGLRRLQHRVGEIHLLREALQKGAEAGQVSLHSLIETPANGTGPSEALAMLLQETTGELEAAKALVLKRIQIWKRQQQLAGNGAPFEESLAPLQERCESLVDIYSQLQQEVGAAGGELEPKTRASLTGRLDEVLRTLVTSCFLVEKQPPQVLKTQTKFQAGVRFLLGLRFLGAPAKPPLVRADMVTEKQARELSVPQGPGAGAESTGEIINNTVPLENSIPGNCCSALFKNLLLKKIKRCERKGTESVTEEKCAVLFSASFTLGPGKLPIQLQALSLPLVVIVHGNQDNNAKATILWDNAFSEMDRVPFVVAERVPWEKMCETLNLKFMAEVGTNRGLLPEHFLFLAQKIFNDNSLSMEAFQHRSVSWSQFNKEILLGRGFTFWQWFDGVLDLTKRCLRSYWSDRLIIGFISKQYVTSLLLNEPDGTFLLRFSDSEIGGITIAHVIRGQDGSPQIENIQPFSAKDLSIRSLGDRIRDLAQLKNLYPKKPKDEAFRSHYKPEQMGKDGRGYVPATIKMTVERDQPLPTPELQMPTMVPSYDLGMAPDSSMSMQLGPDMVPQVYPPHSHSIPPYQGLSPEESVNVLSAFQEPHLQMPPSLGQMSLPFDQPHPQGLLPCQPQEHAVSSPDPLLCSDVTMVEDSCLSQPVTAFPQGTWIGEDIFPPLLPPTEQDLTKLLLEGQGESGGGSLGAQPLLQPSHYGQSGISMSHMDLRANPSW
The test is described as follows: Stat6 Degrader Assay (HiBiT based, HeLa LgBiT clone 4.14). It is filed as cell-based. To be noted: HeLa LgBiT clone 4.14 HiBiT-STAT6, 4-24 h incubation; values given for compounds with >80% Emax; geometric mean; read-out: STAT6 degradation DC50. The procedure, abridged:
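Luminescence from HiBiT-STAT6 complementing stably expressed LgBiT in HeLa clone 4.14 reports remaining STAT6 protein. Cells (5000/well) exposed to compound for 4-24 h at 37° C; read 0.5 h after Nano-Glo addition. 100% degradation window set with 50 μM terfenadine; percent degradation plotted against concentration.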

Test [1] has as its system Eotaxin-3 release in human whole blood stimulated with IL-4. The test is described as follows: Human Whole Blood Eotaxin-3 Assay (IL-4 stimulated eotaxin-3 release). It counts as cell-based. The note with it: IL-4 stimulation, 48 h, values given for compounds with >80% Emax, geometric mean. The procedure, abridged: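 Eotaxin-3 (CCL26) release measured by MSD kit in plasma supernatant after 48 h IL-4 stimulation ([…]) of human whole blood. Compounds added in triplicate 4-fold dilutions 2 h before stimulation; 0.5% DMSO final, 37° C, 5% CO2.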

As for `CNc1cc(=O)n(-c2ccnc3c2cc([C@H](C)N2CC=C(c4c(C)cc(C(=O)N(C)c5ccc(C6CCN(Cc7ccc8c(c7)C(C)(C)C(=O)N8[C@@H]7CCC(=O)NC7=O)CC6)cc5)cc4F)CC2)n3C)cc1F` (single isomer, unassigned) [Example 3u235], at STAT6, the DC50 came out at 0.1 nM. Also, the EC50 in test [1] was found to be 1.4 nM.

Turning to `CNc1cc(=O)n(-c2ccnc3c2cc([C@H](C)N2CC=C(c4c(C)cc(C(=O)N(C)c5ccc(N6CCC(Cc7ccc8c(c7)n(C)c(=O)n8[C@H]7CCC(=O)NC7=O)CC6)nc5)cc4F)CC2)n3C)cc1F` (single isomer, unassigned) [Example 3u242], the 50% degradation concentration (DC50) at STAT6 turned out to be 0.2 nM. For the same compound, the EC50 in test [1] worked out at 0.2 nM.

Consider `CNc1cc(=O)n(-c2ccnc3c2cc([C@H](C)N2CC=C(c4c(C)cc(C(=O)N(C)c5ccc(N6CCC(Cc7ccc8c(c7)n(C)c(=O)n8[C@@H]7CCC(=O)NC7=O)CC6)nc5)cc4F)CC2)n3C)cc1F` (single isomer, unassigned) [Example 3u243], for which the DC50 at STAT6 was 0.3 nM. It took 0.4 nM to reach a half-maximal effect in test [1] (EC50).

On to `CNc1ccn(-c2ccnc3c2cc([C@H](C)N2CC=C(c4c(C)cc(C(=O)N5CCC(CN6CCN(c7ccc8c(c7)n(C7CC7)c(=O)n8[C@H]7CCC(=O)NC7=O)CC6)CC5)cc4F)CC2)n3C)c(=O)c1` (single isomer, unassigned) [Example 3u279], for which the DC50 on STAT6 stood at 1.4 nM. In addition, in test [1], the response was half-maximal at 1.7 nM (EC50).

As to `CNc1ccn(-c2ccnc3c2cc([C@H](C)N2CC=C(c4c(C)cc(C(=O)N5CCC(CN6CCN(c7ccc8c(c7)C(C)(C)C(=O)N8[C@@H]7CCC(=O)NC7=O)CC6)CC5)cc4F)CC2)n3C)c(=O)c1` (single isomer, unassigned) [Example 3u281], the DC50 on STAT6 came out at 4 nM. Also, in test [1], it took 4.2 nM to reach a half-maximal effect (EC50).

`CNc1cc(=O)n(-c2ccnc3c2cc([C@H](C)N2CC=C(c4c(C)cc(C(=O)N5CCC(CN6CCN(c7ccc8c(c7)C(C)(C)C(=O)N8[C@H]7CCC(=O)NC7=O)CC6)CC5)cc4F)CC2)n3C)cc1F` (single isomer, unassigned) [Example 3u285]: the DC50 at STAT6 was 7.8 nM. This compound also registered an EC50 in test [1] of 101 nM.

`CNc1cc(=O)n(-c2ccnc3c2cc([C@H](C)N2CC=C(c4c(C)cc(C(=O)N5CCC(CN6CCN(c7ccc8c(c7)C(C)(C)C(=O)N8[C@@H]7CCC(=O)NC7=O)CC6)CC5)cc4F)CC2)n3C)cc1F` (single isomer, unassigned) [Example 3u286]: the DC50 on STAT6 was 12.5 nM. In test [1], this compound returned an EC50 of 25.2 nM.

Consider `CNc1cc(=O)n(-c2ccnc3c2cc([C@H](C)N2CC=C(c4c(C)cc(C(=O)N5CCC(CN6CCN(c7ccc8c(c7)C7(CC7)C(=O)N8[C@H]7CCC(=O)NC7=O)CC6)CC5)cc4F)CC2)n3C)cc1F` (single isomer, unassigned) [Example 3u291], for which the DC50 at STAT6 stood at 5.7 nM. In test [1], the EC50 was found to be 21.7 nM.

Turning to `CNc1cc(=O)n(-c2ccnc3c2cc([C@H](C)N2CC=C(c4c(C)cc(C(=O)N5CCC(CN6CCN(c7ccc8c(c7)C7(CC7)C(=O)N8[C@@H]7CCC(=O)NC7=O)CC6)CC5)cc4F)CC2)n3C)cc1F` (single isomer, unassigned) [Example 3u292], on STAT6, the DC50 was 5.1 nM. The response in test [1] was half-maximal at 6.9 nM (EC50).

Turning to `CNc1ccn(-c2ccnc3c2cc([C@H](C)N2CC=C(c4c(C)cc(C(=O)N5CCC(CN6CCN(c7ccc8c(c7)n(C)c(=O)n8[C@H]7CCC(=O)NC7=O)CC6)CC5)cc4F)CC2)n3C)c(=O)c1` (single isomer, unassigned) [Example 3u293], the DC50 at STAT6 stood at 1 nM. For the same compound, in test [1], the midpoint of the response, the EC50, lay at 0.8 nM.

In the case of `CNc1ccn(-c2ccnc3c2cc([C@H](C)N2CC=C(c4c(C)cc(C(=O)N5CCC(CN6CCN(c7ccc8c(c7)n(C)c(=O)n8[C@@H]7CCC(=O)NC7=O)CC6)CC5)cc4F)CC2)n3C)c(=O)c1` (single isomer, unassigned) [Example 3u294], the half-maximal degradation concentration (DC50) on STAT6 stood at 0.8 nM. The EC50 in test [1] was 0.3 nM.

On to `CNc1cc(=O)n(-c2ccnc3c2cc([C@H](C)N2CC=C(c4c(C)cc(C(=O)N5CCC(CN6CCN(c7ccc8c(c7)n(C)c(=O)n8[C@H]7CCC(=O)NC7=O)CC6)CC5)cc4F)CC2)n3C)cc1F` (single isomer, unassigned) [Example 3u296], for which the DC50 on STAT6 came to 2.7 nM. The same compound showed a half-maximal effective concentration (EC50) in test [1] of 5.8 nM.

For the compound `CNc1cc(=O)n(-c2ccnc3c2cc([C@H](C)N2CC=C(c4c(C)cc(C(=O)N5CCC(CN6CCN(c7ccc8c(c7)n(C)c(=O)n8[C@@H]7CCC(=O)NC7=O)CC6)CC5)cc4F)CC2)n3C)cc1F` (single isomer, unassigned) [Example 3u297], at STAT6, the DC50 was determined as 2.2 nM. This compound also displayed an EC50 in test [1] of 3.2 nM.

For `CNc1ccn(-c2ccnc3c2cc([C@H](C)N2CC=C(c4c(C)cc(C(=O)N5CCC(CN6CCN(c7cc8c(cc7F)n([C@H]7CCC(=O)NC7=O)c(=O)n8C)CC6)CC5)cc4F)CC2)n3C)c(=O)c1` (single isomer, unassigned) [Example 3u307], on STAT6, the DC50 is 1.4 nM. This compound showed an EC50 in test [1] of 1.1 nM.

With `CNc1ccn(-c2ccnc3c2cc([C@H](C)N2CC=C(c4c(C)cc(C(=O)N5CCC(CN6CCN(c7cc8c(cc7F)n([C@@H]7CCC(=O)NC7=O)c(=O)n8C)CC6)CC5)cc4F)CC2)n3C)c(=O)c1` (single isomer, unassigned) [Example 3u308], at STAT6, the DC50 turned out to be 0.7 nM. In test [1], this compound registered an EC50 of 1.3 nM.

As to `CNc1ccn(-c2ccnc3c2cc([C@H](C)N2CCC(c4ccc(C(=O)N5CCC(CN6CCN(Cc7ccc8c(c7)n(C)c(=O)n8C7CCC(=O)NC7=O)C[C@@H]6C)CC5)cc4)CC2)n3C)c(=O)c1` (stereo partly drawn) [Example 3e39, 3-(3-methyl-5-(((S)-3-methyl-4-((1-(4-(1-((S)-1-(1-methyl-4-(4-(methylamino)-2-oxopyridin-1 (2H)-yl)-1H-pyrrolo[2,3-b]pyridin-2-yl)ethyl)piperidin-4-yl)benzoyl)piperidin-4-yl)methyl)piperazin-1-yl)methyl)-2-oxo-2,3-dihydro-1H-benzo[d]imidazol-1-yl)piperidine-2,6-dione], the DC50 at STAT6 came out at 0.5 nM. It took 0.5 nM to reach a half-maximal effect in test [1] (EC50).

Consider `C[C@H]1CN(Cc2ccc3c(c2)n(C)c(=O)n3C2CCC(=O)NC2=O)CCN1CC1CCN(C(=O)c2ccc(C3CCN([C@@H](C)c4cc5c(-n6ccc7c(c6=O)CCN7)ccnc5n4C)CC3)cc2)CC1` (stereo partly drawn) [Example 3e44, 3-(3-methyl-5-(((S)-3-methyl-4-((1-(4-(1-((S)-1-(1-methyl-4-(4-oxo-1,2,3,4-tetrahydro-5H-pyrrolo[3,2-c]pyridin-5-yl)-1H-pyrrolo[2,3-b]pyridin-2-yl)ethyl)piperidin-4-yl)benzoyl)piperidin-4-yl)methyl)piperazin-1-yl)methyl)-2-oxo-2,3-dihydro-1H-benzo[d]imidazol-1-yl)piperidine-2,6-dione], for which the 50% degradation concentration (DC50) on STAT6 worked out at 0.7 nM. In test [1], this compound displayed an EC50 of 0.3 nM.

Consider `CNc1nc(=O)n(-c2ccnc3c2cc(CN2CCC(c4c(F)cc(C(=O)N5CCC(CN6CCN(Cc7ccc8c(c7)C7(CC7)C(=O)N8C7CCC(=O)NC7=O)C[C@@H]6C)CC5)cc4F)CC2)n3C)cc1F` (stereo partly drawn) [Example 3h10, 3-(5′-(((S)-4-((1-(3,5-difluoro-4-(1-((4-(5-fluoro-4-(methylamino)-2-oxopyrimidin-1 (2H)-yl)-1-methyl-1H-pyrrolo[2,3-b]pyridin-2-yl)methyl)piperidin-4-yl)benzoyl)piperidin-4-yl)methyl)-3-methylpiperazin-1-yl)methyl)-2′-oxospiro[cyclopropane-1,3′-indolin]-1′-yl)piperidine-2,6-dione], for which the DC50 on STAT6 worked out at 3.2 nM. In test [1], this compound had an EC50 of 4.8 nM.
